Data set [1] is described as follows: Chemical stability of the compound assessed as specific activity per ug at 30 uM after 30 mins in presence of purified carboxylesterase 1. It is filed as physicochemical. Particulars: isolated protein, 0.5 h.
Another data set has as its system NCI-H23. The experiment in a line: Cytotoxicity against human NCI-H23 cells after 5 days by SRB assay. It is filed as functional. Particulars: NCI-H23, 120 h. For orientation: Sulforhodamine B stains cellular protein and so reports cell mass.
The next data set deals with DU-145. Description: Cytotoxicity against human DU145 cells after 5 days by SRB assay. It is filed as functional. Particulars: DU-145, 120 h.
Data set [2] is described as follows: Chemical stability of the compound assessed as specific activity per ug at 30 uM after 30 mins in presence of purified cathepsin A. It is filed as physicochemical. The following applies: 0.5 h.
Data set [3] is described as follows: Cytotoxicity against human HeLaS3 cells after 3 days by XTT assay. It is filed as functional, cell-based. The following applies: HeLa S3, 72 h. (Tetrazolium dyes change colour on reduction, which living cells bring about.)
The test system of another data set is HepG2. Description: Cytotoxicity against human HepG2 cells after 3 days by XTT assay. It is filed as functional, cell-based. Particulars: HepG2, 72 h.
The next data set concerns HCT-116. The experiment in a line: Cytotoxicity against human HCT116 cells after 5 days by SRB assay. It is filed as functional. The following applies: HCT-116, 120 h.
Data set [4] in a line: Chemical stability of the compound assessed as specific activity per ug at 30 uM after 30 mins in presence of purified carboxylesterase 2. It is filed as physicochemical. Particulars: isolated protein, 0.5 h.
A short description of data set [5]: Cytotoxicity against human Hs578 cells after 5 days by SRB assay. It is filed as functional. The following applies: Hs578, 120 h.
The test system of a further data set is HL-60. Description: Cytotoxicity against human HL60 cells after 5 days by SRB assay. It is filed as functional. The following applies: HL-60, 120 h.
Data set [6] relates to CCRF-CEM. Description: Cytotoxicity against human CCRF-CEM cells after 3 days by XTT assay. Particulars: 72 h. It is filed as functional, cell-based.
The subject of data set [7] is CCRF-CEM. Description: Cell cycle arrest in human CCRF-CEM cells assessed as accumulation at G1 phase at IC50 concentration using propidium iodide staining by flow cytometry relative to control. It is filed as functional. (In general: A flow cytometer gives signals particle by particle.)
In data set [8] the test system is CCRF-CEM. Description: Cell cycle arrest in human CCRF-CEM cells assessed as accumulation at S phase at IC50 concentration using propidium iodide staining by flow cytometry relative to control. It is filed as functional.
The subject of data set [9] is CCRF-CEM. The experiment in a line: Cell cycle arrest in human CCRF-CEM cells assessed as increased of cellular debris level at IC50 concentration using propidium iodide staining by flow cytometry relative to control. It is filed as functional.
Data set [10] concerns CCRF-CEM. Description: Cell cycle arrest in human CCRF-CEM cells assessed as accumulation at G2/M phase at IC50 concentration using propidium iodide staining by flow cytometry relative to control. It is filed as functional.

For the molecule `COC(=O)[C@H](C)NP(=O)(OC[C@H]1O[C@@H](n2ccc3c(-c4ccco4)ncnc32)[C@H](O)[C@@H]1O)Oc1ccccc1` (some centres not stated), the Stability in [1] was found to be 86 pmol/min; in data set [2], 1249 pmol/min; in data set [4] it was 0 pmol/min. Moreover, the GI50 (in general, the concentration at which growth is held to half of that of the control) with NCI-H23 came to 4630 nM; in the data set with DU-145, 1190 nM; in the data set with HCT-116 it was 1030 nM; in [5] it was 2310 nM; in the data set on HL-60 it was 3310 nM. Also, the IC50 (as a rule, the concentration needed to halve the response being measured) in data set [3] was determined as 1400 nM; in the data set on HepG2, 1200 nM; with CCRF-CEM [6] it was 3440 nM.
Consider `CCOC(=O)[C@H](C)NP(=O)(OC[C@H]1O[C@@H](n2ccc3c(-c4ccco4)ncnc32)[C@H](O)[C@@H]1O)Oc1ccccc1` (some centres not stated), for which the Activity in the data set with CCRF-CEM [7] is given as 26.6%; with CCRF-CEM [8] it was 55.3%; with CCRF-CEM [9] it was 42.5%; in the data set on CCRF-CEM [10], 18.06%. For the same molecule, the results for the Stability in [1], in data set [2] and in data set [4] were 149 pmol/min, 11989 pmol/min and 0 pmol/min, respectively. Moreover, the GI50 in the data set with NCI-H23 stood at 2870 nM; with DU-145 it was 2290 nM; in the data set on HCT-116, 2500 nM; in data set [5], 2180 nM; with HL-60 it was 4860 nM. In addition, the IC50 worked out at 1020 nM in [3], 1420 nM in the data set with HepG2 and 3340 nM with CCRF-CEM [6].
Consider `C[C@H](NP(=O)(OC[C@H]1O[C@@H](n2ccc3c(-c4ccco4)ncnc32)[C@H](O)[C@@H]1O)Oc1ccccc1)C(=O)OCc1ccccc1` (some centres not stated), for which the Activity is recorded as 31.6% in the data set on CCRF-CEM [7], 54.7% in the data set with CCRF-CEM [8], 48.8% in the data set with CCRF-CEM [9] and 13.7% in the data set with CCRF-CEM [10]. The Stability in data set [1] is recorded as 133 pmol/min; in [2], 14727 pmol/min; in [4], 0 pmol/min. Moreover, the GI50 in the data set on NCI-H23 was determined as 1910 nM; with DU-145, 1360 nM; with HCT-116 it was 1080 nM; in data set [5], 1040 nM; in the data set with HL-60, 2190 nM. Moreover, the 50% inhibitory concentration (IC50) in data set [3] was 580 nM; with HepG2, 620 nM; in the data set on CCRF-CEM [6], 1130 nM.
For the molecule `COC(=O)[C@H](C)NP(=O)(OC[C@H]1O[C@@H](n2ccc3c(-c4ccsc4)ncnc32)[C@H](O)[C@@H]1O)Oc1ccccc1` (some centres not stated), the Stability in [1] amounted to 167 pmol/min; in [2], 1496 pmol/min; in [4], 0 pmol/min. The GI50 (in the data set on NCI-H23; with DU-145; in the data set on HCT-116; in [5]; in the data set on HL-60) was over 10000 nM in each case. The IC50 (in [3]; in the data set with HepG2; in the data set with CCRF-CEM [6]) was over 10000 nM in each case.

These data come from ChEMBL document CHEMBL1641589, “Phosphoramidate pronucleotides of cytostatic 6-aryl-7-deazapurine ribonucleosides” (Bioorg Med Chem, 2011).
